Test results: patent EP0414533A1, “Use of iodopropargyl esters of alpha-amino acid derivatives as antimicrobial agents” (ROHM AND HAAS COMPANY, priority 1989, dated 1991)
Structures can show the parent of a compound that is named as a salt. Where two headings read alike, the source gives them in different places.

Columns and labels:
[1] = test system: 7 FUNGI; assay: Microbicides broad spectrum secondary test against 7 fungi (Table V); assay type: cell-based; set-up: key: 1= no growth; 0= growth of the indicated fungi at dose indicated in ppm; settings: Mycophile agar, pH 5.0; for ANIG growth: Aspergillus niger; for APUL growth: Aureobasidium pullulans; for CRES growth: Cladosporium resinae; for GTRA growth: Gloeophyllum trabeum; for PFUN growth: Penicillium funiculosum; for RRUB growth: Rhodotorula rubra; for SSER growth: Sacharomyces cerevisiae
Method: In the case of fungi, the spores are harvested by pipetting water onto the slant and dislodging the spores with a sterile loop. The cell/spore suspension is standardized by controlling incubation time, temperature, and the volume of the diluent. The suspension is then used to inoculate the vessels containing the broth compound. […] The results of the minimum inhibitory concentration (MIC) tests of compounds of this invention are shown in Tables IIIa IIIb, IIIc, V, VI, VII, and VIII against the microorganisms shown in Table IX. [table]

[2] = test system: Piricularia oryzae (PIR); assay: microbe, parasite or virus in culture; assay type: cell-based; settings: for inhibition of growth at 0.2 ppm: .2 ppm; for inhibition of growth at 0.4 ppm: .4 ppm; for inhibition of growth at 0.8 ppm: .8 ppm
[3] = test system: PSH; assay: In-vitro plant fungicide test; assay type: cell-based; settings: Table IVb, read-out: % Control at (ppm) indicated PSH; for inhibition of growth at 0.2 ppm: .2 ppm; for inhibition of growth at 0.4 ppm: .4 ppm; for inhibition of growth at 0.8 ppm: .8 ppm
[4] = test system: Septoria nodorum (SEP); assay: In-vitro plant fungicide test; assay type: cell-based; settings: Parastagonospora nodorum; for inhibition of growth at 0.2 ppm: .2 ppm; for inhibition of growth at 0.4 ppm: .4 ppm; for inhibition of growth at 0.8 ppm: .8 ppm
[5] = test system: Pseudomonas fluorescens (PSFL); assay: Minimum inhibitory concentration (MIC), broth two-fold serial dilution test; settings: Pseudomonas fluorescens, read-out: MIC (G-) PSFL, M9G (minimal salts media with glucose); Table IIIc, iodopropargyl esters of peptides
[6] = test system: Aureobasidium pullulans (APUL); assay: as above; assay type: cell-based; settings: Aureobasidium pullulans, read-out: MIC (F) APUL, M9G (minimal salts media with glucose); Table IIIc, iodopropargyl esters of peptides
[7] = read-out: % Control at (ppm) indicated PIR
[8] = 25 ppm, read-out: % Control at (ppm) indicated PIR
[9] = read-out: % Control at 25 ppm PIR
[10] = Table IVb, read-out: % Control at (ppm) indicated SEP
[11] = Table IVa, read-out: % Control at 25 ppm SEP

CC(C)(C)OC(=O)NCC(=O)OCC#CI [Compound 1, N-t-butoxycarbonylglycine iodopropargyl ester]
1: ANIG growth ([1]; 5 PPM) | ANIG growth ([1]; 25 PPM) | APUL growth ([1]; 25 PPM) | CRES growth ([1]; 25 PPM) | GTRA growth ([1]; 1 PPM) | GTRA growth ([1]; 5 PPM) | GTRA growth ([1]; 25 PPM) | PFUN growth ([1]; 25 PPM) | RRUB growth ([1]; 25 PPM) | SSER growth ([1]; 25 PPM)
0%: inhibition of growth at 0.2 ppm [2, 7] | inhibition of growth at 0.4 ppm [2, 7] | inhibition of growth at 0.8 ppm [2, 7] | inhibition of growth at 0.2 ppm [3] | inhibition of growth at 0.4 ppm [3] | inhibition of growth at 1.5 ppm [4, 10] | inhibition of growth at 0.2 ppm [4, 10] | inhibition of growth at 0.4 ppm [4, 10] | inhibition of growth at 0.8 ppm [4, 10]
0: ANIG growth ([1]; 0.2 PPM) | ANIG growth ([1]; 1 PPM) | APUL growth ([1]; 0.2 PPM) | APUL growth ([1]; 1 PPM) | APUL growth ([1]; 5 PPM) | CRES growth ([1]; 0.2 PPM) | CRES growth ([1]; 1 PPM) | CRES growth ([1]; 5 PPM) | GTRA growth ([1]; 0.2 PPM) | PFUN growth ([1]; 0.2 PPM) | PFUN growth ([1]; 1 PPM) | PFUN growth ([1]; 5 PPM) | RRUB growth ([1]; 0.2 PPM) | RRUB growth ([1]; 1 PPM) | RRUB growth ([1]; 5 PPM) | SSER growth ([1]; 0.2 PPM) | SSER growth ([1]; 1 PPM) | SSER growth ([1]; 5 PPM)
100%: inhibition of growth at 6 ppm [2, 7] | inhibition of growth at 25 ppm [2, 8] | inhibition of growth at 25 ppm [2, 9] | inhibition of growth at 1.5 ppm [3] | inhibition of growth at 6 ppm [3] | inhibition of growth at 25 ppm ([3]; 25 ppm) | inhibition of growth at 6 ppm [4, 10] | inhibition of growth at 25 ppm [4, 11] | inhibition of growth at 25 ppm [4, 10]
50%: inhibition of growth at 1.5 ppm [2, 7]
75%: inhibition of growth at 0.8 ppm [3]

C[C@H](N)C(=O)N[C@@H](COCc1ccccc1)C(=O)OCC#CI [Compound 19, L-alanyl-O-benzyl-L-serine iodopropargyl ester trifluoroacetate]
0%: inhibition of growth at 1.5 ppm [2, 7] | inhibition of growth at 6 ppm [2, 7] | inhibition of growth at 0.2 ppm [2, 7] | inhibition of growth at 0.4 ppm [2, 7] | inhibition of growth at 0.8 ppm [2, 7] | inhibition of growth at 0.2 ppm [3] | inhibition of growth at 0.4 ppm [3] | inhibition of growth at 0.8 ppm [3] | inhibition of growth at 0.2 ppm [4, 10] | inhibition of growth at 0.4 ppm [4, 10] | inhibition of growth at 0.8 ppm [4, 10]
50 µg/mL: MIC [5]
50%: inhibition of growth at 1.5 ppm [3] | inhibition of growth at 1.5 ppm [4, 10]
< 0.8 µg/mL: MIC [6]
100%: inhibition of growth at 25 ppm [2, 8] | inhibition of growth at 25 ppm [2, 9] | inhibition of growth at 6 ppm [3] | inhibition of growth at 6 ppm [4, 10] | inhibition of growth at 25 ppm [4, 11] | inhibition of growth at 25 ppm [4, 10]
